For 112 compounds, melting point results are on record in a melting point compilation (Tetko et al.).

Regarding `CCOC(=O)c1csc(NC(=O)CCl)n1`, the melting point (commonly the temperature, or range, at which the solid turns liquid) was in the range of 208 to 210 °C.

`Cc1[nH]nc(-c2ccccc2)c1C` yielded a melting point of 104 °C.

`COC(=O)c1c(C)noc1-c1cc(C)on1`: the melting point lay in the range of 84 to 86 °C.

As to `Nc1ccccc1S(N)(=O)=O`, the melting point came out at 155 °C.

In the case of `O=[N+]([O-])c1cccc(F)c1`, the melting point came out at 41 °C.

For the compound `COc1ccc(C(N)=S)cc1`, the melting point is 148 to 152 °C.

Regarding `FC(F)(F)c1cc(Cl)ccc1I`, the melting point lay within 29 to 31 °C.

The compound `Cn1cc2cc([N+](=O)[O-])ccc2n1` displayed a melting point of 129 °C.

Compound `Nc1nc(N)c2nc(-c3ccccc3)c(N)nc2n1` came in with a melting point of 316 °C.

The compound `CC1(C)CC(=O)c2c(C(=O)c3ccc(Cl)cc3)noc2C1` had a melting point of 126 °C.

Compound `O=C(c1ccccc1)c1cc2c(cc1Br)OCCCO2` registered a melting point of 105 to 107 °C.

For `CC1CCC(C)(COC(=O)c2ccccc2C(=O)OCC2(C)CCC(C)C2(C)C)C1(C)C` (configuration not stated), the melting point worked out at 80 °C.

On to `O=C1c2cccc(O)c2C(=O)c2c(O)cc(CO)cc21`, for which the melting point was 224 °C.

`Cc1cc(Cl)ccc1C(=O)O` yielded a melting point of 172 to 173 °C.

`O=C(/C(=N/O)c1ccccc1)c1ccc2c3c(cccc13)CC2` registered a melting point of 204 °C.

On to `CCCCc1cc2ccccc2c(O)c1C(C)=O`, for which the melting point amounted to 62 °C.

For the compound `CN1CCOc2cc(C(=O)O)cnc21`, the melting point lay within 232 to 280 °C.

For the compound `O=C1Cc2cc(S(=O)(=O)Cl)ccc2N1`, the melting point is 160 °C.

Compound `Cc1ccc(C(c2ccc(C)o2)c2cc(Br)cc([N+](=O)[O-])c2O)o1` had a melting point of 100 °C.

As to `CC(O)CC(C)(C)C` (configuration not stated), the melting point was -60 °C.

`Cn1nc(N)c2c(=O)c(C(=O)O)c[nH]c21` came in with a melting point of 223 to 225 °C.

As for `BrC(=C(c1ccccc1)c1ccccc1)c1ccccc1`, the melting point lay within 115 to 117 °C.

In turn, `CCCC=C1C(=O)C2(C)CCC1C2(C)C` (configuration not stated) returned a melting point of 120 °C.

Regarding `O=[N+]([O-])c1ccc2c(c1)CCN2S(=O)(=O)c1ccccc1`, the melting point was in the range of 128 to 130 °C.

`O=Cc1ccccc1OCc1ccccc1Cl`: the melting point lay within 84 to 86 °C.

Compound `OC(Cn1cncn1)(c1ccc(F)cc1)c1ccccc1F` (configuration not stated) gave a melting point of 130 °C.

In turn, `CC(CP(c1ccccc1)c1ccccc1)P(c1ccccc1)c1ccccc1` (configuration not stated) came in with a melting point of 68 to 73 °C.

Compound `N#CC1(c2ccc(Cl)cc2)CC1` yielded a melting point of 52 to 56 °C.

With `CC(=O)Nc1ccc([N+](=O)[O-])c(Br)c1`, the melting point was found to be 145 °C.

Compound `CC(=NO)c1cccs1` returned a melting point of 113 to 114 °C.

As to `O=C(c1ccccc1)N(CC(=Nc1ccccc1)Nc1ccccc1)c1ccccc1`, the melting point turned out to be 142 °C.

The compound `O=[N+]([O-])c1ccc(C=NNc2ccccc2)cc1` yielded a melting point of 166 °C.

As for `CC(=O)CCc1ccc(CCC(C)=O)c([N+](=O)[O-])c1`, the melting point came out at 58 °C.

`CC(=O)Nc1ccc(C#N)c(C(F)(F)F)c1` returned a melting point of 170 to 173 °C.

As for `O=[N+]([O-])c1sc2ccccc2c1Br`, the melting point fell in the range of 165 to 167 °C.

Compound `CC1=CC(=O)C=CC1=O` gave a melting point of 69 °C.

Turning to `CC1CCCC(C)C1C` (configuration not stated), the melting point is -66.9 °C.

The compound `CC1CCC(C(C)C)C(OC(=O)C(C(=O)c2ccccc2)C(=O)c2ccccc2)C1` (configuration not stated) yielded a melting point of 138 °C.

Compound `C=CC(=O)Oc1c(Br)cc(Cl)c2cccnc12` came in with a melting point of 100 °C.

For `Cn1c(=O)cc(O)c2ccccc21`, the melting point lay within 264 to 266 °C.

On to `CC(=O)OCC1OC(n2cnc3c(=O)[nH]c(N)nc32)C(OC(C)=O)C1OC(C)=O` (configuration not stated), for which the melting point was in the range of 224 to 233 °C.

Take `Oc1ccnc(O)c1`: the melting point was found to be 278 °C.

Take `C#Cc1ccc(C)cc1`: the melting point came to 21 °C.

`CC(Cc1ccccc1)c1ccccc1` (configuration not stated) came in with a melting point of 52 °C.

As for `CC(C)(C)Oc1ccccc1`, the melting point was -24 °C.

The compound `Clc1cccc(I)c1Cl` gave a melting point of 35 °C.

On to `Nc1cccc(C2OCCCO2)c1`, for which the melting point lay in the range of 75 to 76 °C.

Consider `O=COC1OC(=O)c2ccccc21` (configuration not stated), for which the melting point was 82 °C.

`Cc1cccc(N)c1C(=O)O` had a melting point of 124 °C.

Turning to `CCc1ccccc1[N+](=O)[O-]`, the melting point was -12.3 °C.

Take `CC12CCC(=O)CC1(O)CCC2=O` (single isomer, unassigned; (+)): the melting point lay within 110 to 118 °C.

The compound `O=Cc1cccc(Cn2cncn2)c1` returned a melting point of 54 to 56 °C.

As for `CC(C(=O)O)c1ccc(CBr)cc1` (configuration not stated), the melting point was in the range of 123 to 128 °C.

`CCCCCCCCCCC(C)C` displayed a melting point of -26 °C.

Turning to `ClC(Cl)(Cl)CC(Cl)(Cl)Cl`, the melting point is -27 °C.

As for `COc1ccc(-c2ccc(C=O)s2)cc1`, the melting point was in the range of 118 to 119 °C.

On to `COc1ccc(Cl)cc1C(=O)O`, for which the melting point was 99 °C.

In turn, `Fc1cc(Br)cc(Br)c1N=C=S` registered a melting point of 50 to 51 °C.

On to `CC(C)(C)c1ccc(N=C=S)cc1`, for which the melting point came to 42 °C.

`O=C(O)CNc1ccccc1C(=O)O` yielded a melting point of 218 °C.

`COc1c(C)cc(C(=O)O)cc1C` displayed a melting point of 190 to 194 °C.

`O=[N+]([O-])c1ccc(Cl)c(C(F)(F)F)c1` gave a melting point of 22 °C.

For the compound `O=c1on(-c2ccccc2)c(Br)c1-c1ccccc1`, the melting point was in the range of 165 to 166 °C.

Compound `CC(C)OC(=O)c1cc(C(=O)OC(C)C)cc([N+](=O)[O-])c1` had a melting point of 65 °C.

In the case of `COc1ccc(F)c(F)c1O`, the melting point is 46 °C.

Take `CCCCCCC=NO`: the melting point stood at 57.5 °C.

As for `COc1ccc(CCCCO)cc1`, the melting point was 3.5 °C.

Take `CC(=O)Nc1ccc(Cl)cc1Cl`: the melting point is 147 °C.

As for `NCCCCCCCC(=O)O`, the melting point was 195 °C.

In turn, `NC(CC(F)(F)F)C(=O)O` (configuration not stated) registered a melting point of 256 to 258 °C.

Compound `c1cc2occc2c(N2CCNCC2)n1` showed a melting point of 58 to 60 °C.

Take `Cc1cc(C(=O)Nc2ccc(Cl)cc2)no1`: the melting point was 155 to 157 °C.

Take `CCc1c(C)n[nH]c1C`: the melting point was in the range of 40 to 45 °C.

Regarding `Cc1ncsc1C(=O)O`, the melting point lay in the range of 254 to 255 °C.

`O=C(NC(c1ccccc1)C(O)C(=O)O)c1ccccc1` (configuration not stated) yielded a melting point of 170 °C.

In turn, `CC(C(=O)O)c1ccc(C(=O)c2cccs2)cc1` (configuration not stated) returned a melting point of 124 °C.

`C[Si](C)(CCCC(=O)O)O[Si](C)(C)CCCC(=O)O` returned a melting point of 47 °C.

On to `CCCCCCCCNC`, for which the melting point is -11 °C.

`Nc1cccnc1N` showed a melting point of 114 to 116 °C.

The compound `CSc1nc2[nH]c(=S)n(-c3ccccc3)c(=O)c2n1C` yielded a melting point of 268 to 270 °C.

With `NC(=S)c1cnccc1C(F)(F)F`, the melting point is 153 to 156 °C.

With `CC(=O)N1C(=O)/C(=C(\C#Cc2ccccc2)C(=O)c2ccccc2)c2ccccc21`, the melting point is 189 °C.

As for `CCOC(=O)c1cn(C(C)=O)nc1N`, the melting point was determined as 110 °C.

In turn, `O=c1c(C2CC(c3ccc(OCc4ccc(C(F)(F)F)cc4)cc3)Cc3ccccc32)c(O)oc2ccccc12` (configuration not stated) returned a melting point of 92.5 °C.

Consider `O=C(Nc1ccc(C#Cc2ccc(NC(=O)c3ccccc3)cc2)cc1)c1ccccc1`, for which the melting point is 332 °C.

`C[C@]12CCC(=O)C=C1C(=O)C[C@@H]1[C@@H]2CC[C@@]2(C)[C@H]1CCC21OCCO1` displayed a melting point of 162 °C.

On to `O=C(Cl)COc1ccc(Cl)cc1`, for which the melting point worked out at 19 °C.

Consider `C=Cc1ccccc1CC`, for which the melting point was -75.5 °C.

With `O=Cc1ccccn1`, the melting point is -21 °C.

Turning to `Cc1ccc(C(=O)Cl)o1`, the melting point worked out at 29 °C.

As for `COc1ccccc1C1Nn2c(nnc2-c2ccc([N+](=O)[O-])cc2)S1` (configuration not stated), the melting point is 152 °C.

Consider `O=C(Cl)c1ccc(-c2ccsc2)cc1`, for which the melting point was in the range of 145 to 147 °C.

As to `N#CC1(c2ccc(F)cc2Cl)CCCC1`, the melting point was in the range of 49 to 52 °C.

In the case of `CN1CC(C(=O)NC2(C)OC3(O)C4CCCN4C(=O)C(Cc4ccccc4)N3C2=O)C=C2c3cccc4[nH]cc(c34)CC21` (configuration not stated), the melting point was found to be 214 °C.

The compound `O=C(O)c1ccc(OC(=O)c2ccccc2)cc1` registered a melting point of 89 °C.

Compound `CC(Cc1cc(=O)c2c3c(c4ccccc4c2o1)OC1CC(=O)OC31)O[Si](C)(C)C(C)(C)C` (configuration not stated) came in with a melting point of 188 °C.

Compound `ClCc1cccc2ccccc12` had a melting point of 32 °C.

With `Cc1nccc2ccccc12`, the melting point came out at 10 °C.

Turning to `O=S(=O)(c1ccccc1)n1ccc2ccccc21`, the melting point was 78 to 80 °C.

Regarding `NNC(=O)c1cccc(Cl)c1`, the melting point is 158 °C.

For the compound `C=C(C)CC1(CC)C(=O)NC(=S)NC1=O`, the melting point amounted to 160 °C.

Regarding `OCc1ccc(-n2cncn2)cc1`, the melting point was 124 to 125 °C.

For `COc1ccc2nc(-c3ccccc3)cc(Cl)c2c1`, the melting point lay in the range of 121 to 124 °C.

For the compound `O=C(Nc1ccc([N+](=O)[O-])cc1)C(C(F)(F)F)(C(F)(F)F)C(F)(F)F`, the melting point lay within 280 to 282 °C.

Compound `OC1C2CCC1C1C=CC2O1` (configuration not stated) showed a melting point of 121 to 123 °C.

The compound `COc1cc(N)c(Cl)cc1C(=O)NC1CCN(CCCOc2ccc(F)cc2)CC1OC` (configuration not stated) gave a melting point of 110 °C.

Compound `CC1(c2ccccc2)NC(=O)NC1=O` (configuration not stated) had a melting point of 199 to 201 °C.

Take `CCC(=O)c1ccc(N)cc1`: the melting point came to 140 °C.

For the compound `CC(=O)C(=Cc1ccc(-c2cccc([N+](=O)[O-])c2)o1)C(C)=O`, the melting point was 153 to 154 °C.

`O=C(Cl)c1ccc2c(c1)OCCO2` returned a melting point of 100 to 101 °C.

As to `CCCCCCCCCCC(C)O` (configuration not stated), the melting point was found to be 19 °C.

As to `NS(=O)(=O)c1ccc2ccccc2c1`, the melting point is 219 °C.
